Assay results published in patent publication US12590093B2, “Indolo[2′,3′:3,4]pyrido[2,1-b]quinazoline compound and use thereof” (INSTITUTE OF MEDICINAL BIOTECHNOLOGY CHINESE ACADEMY OF …, priority 2019, dated 2026).
Entries after “also recorded” stand apart in the source; their conditions may differ.

Legend:
NF-κB signaling pathway = experiment: Western-blot of NF-κB signaling pathway in liver of ApoE−/− mice; assay type: in vivo; conditions: FIG. 7
Procedure: 6-week-old male C57/BL6 ApoE^−/− mice were fed on normal chaw diet for one week. The mice were randomly divided into three groups (control group, high-fat diet model group, and treatment group, 12 mice per group) according to the body weight. From 7-week-old, the high-fat diet model group and the treatment group were fed on a high fat diet (HFD) (0.15% cholesterol and 20% fat), and the control group was fed on normal chow diet. The treatment group (R3) mice were administered intragastrically with TR3 (5 mg/kg). The control group and the high-fat diet model group mice were intragastrically administered with sodium carboxymethylcellulose (CMC-Na) solution. After 12 weeks of administration, all mice were fasted overnight. The blood sample was taken from the retro-orbital plexus, collected in a EP tube, and then centrifuged for 15 min (2500 rpm). The centrifuged serum (upper layer) was transferred to new EP tubes (divided into two aliquots) and stored at −20° C. for further use. […]
When animal tissues were used to prepare protein samples, the tissues were firstly homogenized and lysed in the RIPA lysis buffer. […] When cell supernatants were used to prepare protein samples, the supernatants were freeze-dried, needed to be extracted using a protein recovery kit (Applygen, Beijing, China), and then analyzed by western-blot. […]

PPARδ = molecular target: T1, PPARδ (Homo sapiens, UniProt Q03181); experiment: Nuclear receptor reporter gene transient transfection (pBIND-hPPARs-LBD) in HepG2 cells, PPARδ; assay type: cell-based; conditions: FIG. 2, result in words
T1 construct: expressed in transfected cells; host or cells: HepG2
T1 sequence (Q03181 211-439 limits assumed): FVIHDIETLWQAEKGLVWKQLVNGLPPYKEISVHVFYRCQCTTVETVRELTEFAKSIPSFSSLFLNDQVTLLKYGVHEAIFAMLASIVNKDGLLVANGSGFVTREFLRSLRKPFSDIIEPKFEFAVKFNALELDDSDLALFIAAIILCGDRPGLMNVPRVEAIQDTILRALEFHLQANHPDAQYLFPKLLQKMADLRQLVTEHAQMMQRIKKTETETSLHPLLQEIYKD
Procedure: (§1) HepG2 cells in logarithmic growth phase were digested, seeded into the white/clear 96-well plate at a density of 5×10^4 cells/well/100 μL until the cells grew to about 90% confluence and in good condition. 0.5 μL liposome (Lipofectamine® 2000) diluted with blank medium to 25 μL per well and incubated at room temperature for 5 min. The corresponding plasmids DNA (nuclear receptor plasmid:Gal4=1:10) were diluted in blank DMEM medium to 25 μL/well (mixing of two plasmids), then mixed evenly with the diluted liposome, and incubated for 20 min at 37° C. The DNA-liposome complex (50 μL per well) was added with the DMEM complete medium (100 μL per well) and mixed thoroughly to obtain a DNA-liposome complex cell culture. The cell medium was discarded, and replaced with the DNA-liposome complex cell culture (150 μL/well) (37° C., 5% CO2). After 6 h, the DNA-liposome complex cell culture medium was discarded, and 200 μL serum-free DMEM medium containing the compound at an appropriate concentration was added to each test well, and cultured for 18-24 h. The cell Luciferase activity was measured by the method as described in the Luciferase Assay System.

LXRα = molecular target: T2, LXRα (Homo sapiens, UniProt Q13133); experiment: Nuclear receptor reporter gene transient transfection (pBIND-hLXRs-LBD) in HepG2 cells, LXRα; assay type: cell-based
T2 construct: expressed in transfected cells; host or cells: HepG2
T2 sequence (Q13133 209-447 limits assumed): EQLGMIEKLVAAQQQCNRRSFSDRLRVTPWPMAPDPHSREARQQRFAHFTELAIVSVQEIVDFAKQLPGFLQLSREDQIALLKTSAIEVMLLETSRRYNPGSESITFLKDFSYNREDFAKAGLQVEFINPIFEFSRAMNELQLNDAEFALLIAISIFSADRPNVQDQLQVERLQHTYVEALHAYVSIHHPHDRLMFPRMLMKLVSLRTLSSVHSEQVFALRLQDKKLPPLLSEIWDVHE
Procedure: as §1

ABCA1 = ABCA1 up-regulation, luciferase reporter in ABCA1P-LUC HepG2 cells; assay type: cell-based; conditions: Homo sapiens, 18 h, maximum up-regulation fold of luciferase activity versus DMSO, read-out: ABCA1 max
Procedure: Experiments were conducted to detect whether the compounds of the disclosure can pharmacologically up-regulate the expression of ABCA1 and SR-BI. Firstly, ABCA1P-LUC HepG2 cells or SR-BI-LUC HepG2 cells in logarithmic growth phase were digested, diluted in cell culture medium, and counted. Cells were seeded into 96-well plates at a density of 5×10^5/ml (100 μL of the single-cell suspension per well). After cells fully adhered (about 6 h), the medium containing 10% FBS was removed, and the cells were gently washed with PBS. Serum free MEM-EBSS medium (200 μL per test well) and 2 μL of the compounds to be tested (at a final concentration of 10 μg/mL) were added to each test well, and meanwhile, DMSO at a corresponding concentration was added to the control well. After 18-24 h, the medium was removed. Cell Luciferase activity was measured by a method as described in the Luciferase Assay System. By optimizing the final concentration of DMSO, the treatment time of the compounds on the cells and the number of cells seeded into each well during the screening, the final screening conditions were determined as follows: each well is seeded with 5×10^4 cells, DMSO is added at a final concentration of 1%, and the sample is treated for 18 h.
The ratio of change of luciferase activity is calculated with the following formula: Ratio of change (%)=A/B×100;
wherein A is the luciferase activity (RLU) measured after the compound to be tested is added, and B is the luciferase activity (RLU) measured after the blank control (DMSO) is added. The luciferase activity of cells in each well was measured, and the dose-effect relationship between the concentration of the compound and the ratio of change of the luciferase activity was determined to calculate the EC50.

NLRP3 inflammasome = NLRP3 inflammasome in J774A.1 cells with MAPK agonist Anisomycin; assay type: cell-based; conditions: MAPK signaling pathway agonist Anisomycin added, FIG. 9
From the text: When animal tissues were used to prepare protein samples, the tissues were firstly homogenized and lysed in the RIPA lysis buffer. The subsequent steps were the same as those for preparing protein samples from cells. When cell supernatants were used to prepare protein samples, the supernatants were freeze-dried, needed to be extracted using a protein recovery kit (Applygen, Beijing, China), and then analyzed by western-blot.
After that, the MAPK signaling pathway agonist Anisomycin and TR3 were added into J774A-1 cells.

`c1ccc2c(c1)CN1CCc3c([nH]c4ccccc34)C1=N2` [TR3, 5,7,8,13-tetrahydroindolo[2′,3′:3,4]pyrido[2,1-b]quinazoline] was tested, and the “expression of p-IκBα” value (NF-κB signaling pathway) was “significantly inhibited”, the “expression of p-P65” value (NF-κB signaling pathway) was “significantly inhibited” and the “activation of PPARδ” value (PPARδ) was “simultaneously activated PPARα/γ/δ and LXRα/β to a certain extent”. The LXRα max (LXRα; HepG2 cells, reporter gene, 18-24 h) was 1.36, the LXRα agonist activity (LXRα; result in words) was “showed agonist activity; also recorded: simultaneously activated PPARα/γ/δ and LXRα/β to a certain extent” and the maximal fold induction (ABCA1) was 2.26. The “inhibitory effect on NLRP3, Caspase-1 and IL-1β with Anisomycin added” value (NLRP3 inflammasome) was “reduced”.
